Numbered stars: 1 amine (or outer) side, 2 acyl side, 3 side chain; on linkers, the order of the positions; unused ones are H or OH. Bridge positions count the residues as written; N and C are the ends. Square brackets hold non-standard residues; d marks the D form. Peptide text beside a SMILES is read from it. * marks the point of attachment. X2 = O=C1C[C@@H](C(=O)[*:2])N([*:1])C[C@H]1CS[C@@H]1CN2CCC1CC2; NMePhe(4-NMe2) = CN[C@@H](Cc1ccc(N(C)C)cc1)C(=O)O; Picolinoyl(3-OH) = O=C(c1ncccc1O)*; Phg = N[C@H](C(=O)O)c1ccccc1; dAbu = CC[C@@H](N)C(=O)O
What was measured:
clinical [1] = conditions: human, in vivo, iv, CL
clinical [2] = conditions: human, in vivo, iv, Vdss
clinical [3] = conditions: human, in vivo, iv
clinical [4] = conditions: human, in vivo, iv; remark: listed apart in the source
clinical [5] = conditions: human, in vivo, iv, t1/2

Row | SMILES | clearance (clinical [1]) [mL/min/kg] | Vd (clinical [2]) [L/kg] | fraction unbound (clinical [3]) | MRT (clinical [4]) [h] | half-life (clinical [5]) [h]
1 | CN(C)CCCN1c2ccccc2Sc2ccccc21 [PROMAZINE] | 14 | 8.1 | 0.11 | 9.6 | 7.9
2 | CC(C)c1cccc(C(C)C)c1O [PROPOFOL] | 36 | 4.7 | 0.016 | 2.2 | 3.2
3 | CCC(=O)O[C@](Cc1ccccc1)(c1ccccc1)[C@H](C)CN(C)C [PROPOXYPHENE] | 15 | 12 | 0.24 | 13.3 | 18
4 | CCCc1cc(=O)[nH]c(=S)[nH]1 [PROPYLTHIOURACIL] | 3.1 | 0.34 | 0.18 | 1.8 | 1.3
5 | CCc1nc(N)nc(N)c1-c1ccc(Cl)cc1 [PYRIMETHAMINE] | 0.052 | 0.43 | 0.095 | 140 | 140
6 | O=c1c(O)c(-c2ccc(O)c(O)c2)oc2cc(O)cc(O)c12 [QUERCETIN] | 11 | 0.12 | 0.009 | 0.2 | 0.6
7 | CC[C@H]1NC(=O)[C@@H](NC(=O)c2ncccc2O)[C@@H](C)OC(=O)[C@H](c2ccccc2)NC(=O)[C@@H]2CC(=O)[C@H](CS[C@@H]3CN4CCC3CC4)CN2C(=O)[C@H](Cc2ccc(N(C)C)cc2)N(C)C(=O)[C@@H]2CCCN2C1=O [QUINUPRISTIN] ({Picolinoyl(3-OH)}-T[dAbu]P[NMePhe(4-NMe2)][X2][Phg]; ester 1-C) | 16 | 0.67 | 0.34 | 0.7 | 0.87
8 | CC(NCCc1ccc(O)cc1)C(O)c1ccc(O)cc1 (stereo not given) [RITODRINE] | 31 | 4.4 | 0.64 | 2.4 | 2.6
9 | CCN(C)C(=O)Oc1cccc([C@H](C)N(C)C)c1 [RIVASTIGMINE] | 12 | 1.3 | 0.6 | 1.9 | 1.4
10 | C=CC[N+]1([C@H]2C[C@H]3[C@@H]4CC[C@H]5C[C@H](O)[C@@H](N6CCOCC6)C[C@]5(C)[C@H]4CC[C@]3(C)[C@H]2OC(C)=O)CCCC1 [ROCURONIUM] | 3.7 | 0.21 | 0.54 | 0.95 | 1.6
11 | CN(C)[C@@H]1C(O)=C(C(=O)NCN2CCCC2)C(=O)[C@@]2(O)C(O)=C3C(=O)c4c(O)cccc4[C@@](C)(O)[C@H]3C[C@@H]12 [ROLITETRACYCLINE] | 0.97 | 0.54 | 0.5 | 9.3 | 8.8
12 | CCCN1CCCC[C@H]1C(=O)Nc1c(C)cccc1C [ROPIVACAINE] | 5.5 | 0.75 | 0.06 | 2.3 | 2.2
13 | CN[C@@H]1[C@@H](O)[C@@H](O[C@@H]2[C@@H](O)[C@H](O[C@H]3OC(CN)=CC[C@H]3N)[C@@H](N)C[C@H]2N)OC[C@]1(C)O [SISOMICIN] | 1 | 0.19 | 0.15 | 3.2 | 2.4
14 | Cc1cn([C@H]2C=C[C@@H](CO)O2)c(=O)[nH]c1=O [STAVUDINE] | 8.2 | 0.67 | 1 | 1.4 | 1.4
15 | [H]/N=C(/N)N[C@H]1[C@H](O)[C@@H](O)[C@H](O[C@@H]2O[C@@H](C)[C@](O)(C=O)[C@H]2O[C@@H]2O[C@@H](CO)[C@H](O)[C@@H](O)[C@@H]2NC)[C@@H](N/C(N)=N\[H])[C@@H]1O [STREPTOMYCIN] | 0.78 | 0.34 | 0.65 | 7.3 | 4.3
16 | CC1(C)S[C@@H]2[C@H](NC(=O)C(c3ccccc3)S(=O)(=O)O)C(=O)N2[C@H]1C(=O)O (stereo not given in full) [SULBENICILLIN] | 1.6 | 0.15 | 0.5 | 1.6 | 1.2
17 | Cc1ccc(C(=O)Nc2ccc(S(=O)(=O)O)c3cc(S(=O)(=O)O)cc(S(=O)(=O)O)c23)cc1NC(=O)c1cccc(NC(=O)Nc2cccc(C(=O)Nc3cc(C(=O)Nc4ccc(S(=O)(=O)O)c5cc(S(=O)(=O)O)cc(S(=O)(=O)O)c45)ccc3C)c2)c1 [SURAMIN] | 0.0057 | 0.54 | 0.001 | 1400 | 1200
18 | Nc1c2c(nc3ccccc13)CCCC2 [TACRINE] | 56 | 11 | 0.25 | 3.3 | 3.3
19 | CCCCC/C=C\CCC(=O)N[C@H]1[C@H](Oc2c3cc4cc2Oc2ccc(cc2Cl)[C@@H](O[C@@H]2O[C@H](CO)[C@@H](O)[C@H](O)[C@H]2NC(C)=O)[C@@H]2NC(=O)[C@H](NC(=O)[C@@H]4NC(=O)[C@H]4NC(=O)[C@@H](Cc5ccc(c(Cl)c5)O3)NC(=O)[C@H](N)c3ccc(O)c(c3)Oc3cc(O)cc4c3)c3ccc(O)c(c3)-c3c(O[C@H]4O[C@H](CO)[C@@H](O)[C@H](O)[C@@H]4O)cc(O)cc3[C@@H](C(=O)O)NC2=O)O[C@H](CO)[C@@H](O)[C@@H]1O [TEICOPLANIN A2-1] | 0.2 | 1.5 | 0.11 | 140 | 150
20 | CC[C@H]1OC(=O)[C@H](C)C(=O)[C@H](C)[C@@H](O[C@@H]2O[C@H](C)C[C@H](N(C)C)[C@H]2O)[C@](C)(OC)C[C@@H](C)C(=O)[C@H](C)[C@H]2N(CCCCn3cnc(-c4cccnc4)c3)C(=O)O[C@]12C [TELITHROMYCIN] | 14 | 3 | 0.41 | 3.6 | 12
21 | COc1cc([C@@H]2c3cc4c(cc3[C@@H](O[C@@H]3O[C@@H]5CO[C@@H](c6cccs6)O[C@H]5[C@H](O)[C@H]3O)[C@H]3COC(=O)[C@H]23)OCO4)cc(OC)c1O [TENIPOSIDE] | 0.19 | 0.41 | 0.0044 | 37 | 16
22 | C[C@H](Cn1cnc2c(N)ncnc21)OCP(=O)(O)O [TENOFOVIR ANHYDROUS] | 3.1 | 0.83 | 0.93 | 3.8 | 5.8
23 | O=C1CCC(N2C(=O)c3ccccc3C2=O)C(=O)N1 (stereo not given) [THALIDOMIDE] | 3.4 | 0.95 | 0.4 | 4.3 | 4.7
24 | CCCC(C)C1(CC)C(=O)NC(=S)NC1=O (stereo not given) [THIOPENTAL] | 8.2 | 1.2 | 0.14 | 2.4 | 2
25 | CC1(C)S[C@@H]2[C@H](NC(=O)[C@H](C(=O)O)c3ccsc3)C(=O)N2[C@H]1C(=O)O [TICARCILLIN] | 1.8 | 0.16 | 0.55 | 1.5 | 1
26 | CN(C)c1cc(NC(=O)CNC(C)(C)C)c(O)c2c1C[C@H]1C[C@H]3[C@H](N(C)C)C(O)=C(C(N)=O)C(=O)[C@@]3(O)C(O)=C1C2=O [TIGECYCLINE] | 3.8 | 12 | 0.2 | 53 | 48

— ChEMBL document CHEMBL1614632, “Trend analysis of a database of intravenous pharmacokinetic parameters in humans for 670 drug compounds” (Drug Metab Dispos, 2008)
